From patent publication US12290596B2, “Compositions and methods for the treatment of opioid overdose” (priority 2021, dated 2025)

Experiment: Two-period crossover pharmacokinetics of nalmefene 3 mg IN vs 1.0 mg IM (Example 12)
Conditions: for AUC(0-inf): AUCinf; for half-life: T1/2, Treatment B: IM 1.0 mg nalmefene hydrochloride; for Vd/F: Vz/F
[1] = Treatment A: 3.0 mg nalmefene hydrochloride IN, plasma, Max, n 66
[2] = Treatment A: 3.0 mg nalmefene hydrochloride IN, plasma, Min, n 66
[3] = Treatment B: 1.0 mg nalmefene IM (gluteal muscle), plasma, Max, n 68
[4] = Treatment B: 1.0 mg nalmefene IM (gluteal muscle), plasma, Min, n 68
[5] = Treatment B: IM 1.0 mg nalmefene hydrochloride, plasma, Geo. Mean, n=68
[6] = Treatment B: IM 1.0 mg nalmefene hydrochloride, plasma, Max, n=68
[7] = Treatment B: IM 1.0 mg nalmefene hydrochloride, plasma, Mean, n=68
[8] = Treatment B: IM 1.0 mg nalmefene hydrochloride, plasma, Median, n=68
[9] = Treatment B: IM 1.0 mg nalmefene hydrochloride, plasma, Min, n=68
[10] = human, plasma, im, 1 mg, GeoMean, Treatment B 1.0 mg IM (Ref)
[11] = human, plasma, im, 1 mg, Treatment B: IM 1.0 mg nalmefene hydrochloride, plasma, Geo. Mean, n=68
[12] = human, plasma, im, 1 mg, Treatment B: IM 1.0 mg nalmefene hydrochloride, plasma, Median, n=68
[13] = human, plasma, im, 1 mg, Treatment B: IM 1.0 mg nalmefene hydrochloride, plasma, Mean, n=68

For `C=C1CC[C@@]2(O)[C@H]3Cc4ccc(O)c5c4[C@@]2(CCN3CC2CC2)[C@H]1O5` [Nalmefene, 17-cyclopropylmethyl-4,5α-epoxy-6-methylenemorphinan-3,14-diol], the “Plasma concentrations compared to an intramuscular injection” value (3 mg IN vs 1.0 mg IM, p<0.0001) was “significantly higher plasma concentrations”, the AUC0-5 min [1] was 0.588 ng·h/mL and the AUC0-10 min [1] was 2.78 ng·h/mL. For the same compound, the AUC0-15 min [1] was 5.03 ng·h/mL, the AUC0-20 min [1] was 6.79 ng·h/mL and the AUC0-30 min [1] was 9.16 ng·h/mL. The “AUC0-[…]” value [1] was 0.155 ng·h/mL, the AUC0-10 min [2] was 0.0815 ng·h/mL and the AUC0-15 min [2] was 0.196 ng·h/mL. The AUC0-30 min [2] was 0.802 ng·h/mL, the AUC0-10 min [3] was 0.631 ng·h/mL and the AUC0-15 min [3] was 1.05 ng·h/mL. The AUC0-20 min [3] was 1.33 ng·h/mL, the AUC0-30 min [3] was 1.77 ng·h/mL and the “AUC0-[…]” value [3] was 0.0249 ng·h/mL. For the same compound, the AUC0-15 min [4] was 0.0218 ng·h/mL, the AUC0-20 min [4] was 0.0402 ng·h/mL and the AUC0-30 min [4] was 0.0845 ng·h/mL. The AUCExtrap [5] was 3.94%, the CL/F [5] was 59.6 L/h and the Kel [5] was 0.0667 h⁻¹. The Tlast [5] was 48.0 h, the AUCExtrap [6] was 13.3% and the AUClast [6] was 24.2 ng·h/mL. It also gave a CL/F [6] of 91.8 L/h, a Kel [6] of 0.0968 h⁻¹ and an AUCExtrap [7] of 4.50%. It also gave a CL/F [7] of 60.7 L/h, a Kel [7] of 0.0677 h⁻¹ and a Tlast [7] of 48.0 h. For the same compound, the AUCExtrap [8] was 3.86%, the CL/F [8] was 58.7 L/h and the Kel [8] was 0.0695 h⁻¹. The Tlast [8] was 48.0 h, the AUCExtrap [9] was 1.13% and the AUClast [9] was 10.5 ng·h/mL. For the same compound, the CL/F [9] was 40.0 L/h, the Kel [9] was 0.0394 h⁻¹ and the Tlast [9] was 48.0 h. The AUC(0-t) (human, plasma, im, 1 mg, AUC0-5 min, GeoMean, Treatment B 1.0 mg IM (Ref)) was 0.01 ng·h/mL, the AUC(0-t) (human, plasma, im, 1 mg, AUC0-5 min, Treatment B: 1.0 mg nalmefene IM (gluteal muscle), plasma, Geo. Mean, n 68) was 0.0102 ng·h/mL and the AUC(0-t) (human, plasma, im, 1 mg, AUC0-5 min, Treatment B: 1.0 mg nalmefene IM (gluteal muscle), plasma, Mean, n 68) was 0.0181 ng·h/mL. It also gave an AUC(0-t) (human, plasma, im, 1 mg, AUC0-10 min, GeoMean, Treatment B 1.0 mg IM (Ref)) of 0.064 ng·h/mL, an AUC(0-t) (human, plasma, im, 1 mg, AUC0-10 min, Treatment B: 1.0 mg nalmefene IM (gluteal muscle), plasma, Geo. Mean, n 68) of 0.0639 ng·h/mL and an AUC(0-t) (human, plasma, im, 1 mg, AUC0-10 min, Treatment B: 1.0 mg nalmefene IM (gluteal muscle), plasma, Mean, n 68) of 0.0994 ng·h/mL. The AUC(0-t) (human, plasma, im, 1 mg, AUC0-10 min, Treatment B: 1.0 mg nalmefene IM (gluteal muscle), plasma, Median, n 68) was 0.0583 ng·h/mL, the AUC(0-t) (human, plasma, im, 1 mg, AUC0-15 min, GeoMean, Treatment B 1.0 mg IM (Ref)) was 0.142 ng·h/mL and the AUC(0-t) (human, plasma, im, 1 mg, AUC0-15 min, Treatment B: 1.0 mg nalmefene IM (gluteal muscle), plasma, Geo. Mean, n 68) was 0.142 ng·h/mL. For the same compound, the AUC(0-t) (human, plasma, im, 1 mg, AUC0-15 min, Treatment B: 1.0 mg nalmefene IM (gluteal muscle), plasma, Mean, n 68) was 0.2 ng·h/mL, the AUC(0-t) (human, plasma, im, 1 mg, AUC0-15 min, Treatment B: 1.0 mg nalmefene IM (gluteal muscle), plasma, Median, n 68) was 0.143 ng·h/mL and the AUC(0-t) (human, plasma, im, 1 mg, AUC0-20 min, GeoMean, Treatment B 1.0 mg IM (Ref)) was 0.228 ng·h/mL. For the same compound, the AUC(0-t) (human, plasma, im, 1 mg, AUC0-20 min, Treatment B: 1.0 mg nalmefene IM (gluteal muscle), plasma, Geo. Mean, n 68) was 0.228 ng·h/mL, the AUC(0-t) (human, plasma, im, 1 mg, AUC0-20 min, Treatment B: 1.0 mg nalmefene IM (gluteal muscle), plasma, Mean, n 68) was 0.299 ng·h/mL and the AUC(0-t) (human, plasma, im, 1 mg, AUC0-20 min, Treatment B: 1.0 mg nalmefene IM (gluteal muscle), plasma, Median, n 68) was 0.228 ng·h/mL. It also gave an AUC(0-t) (human, plasma, im, 1 mg, AUC0-30 min, GeoMean, Treatment B 1.0 mg IM (Ref)) of 0.405 ng·h/mL, an AUC(0-t) (human, plasma, im, 1 mg, AUC0-30 min, Treatment B: 1.0 mg nalmefene IM (gluteal muscle), plasma, Geo. Mean, n 68) of 0.405 ng·h/mL and an AUC(0-t) (human, plasma, im, 1 mg, AUC0-30 min, Treatment B: 1.0 mg nalmefene IM (gluteal muscle), plasma, Mean, n 68) of 0.491 ng·h/mL. It also gave an AUC(0-t) (human, plasma, im, 1 mg, AUC0-30 min, Treatment B: 1.0 mg nalmefene IM (gluteal muscle), plasma, Median, n 68) of 0.389 ng·h/mL, an AUC(0-t) (human, plasma, im, 1 mg, AUCLast, GeoMean, Treatment B 1.0 mg IM (Ref)) of 16 ng·h/mL and an AUC(0-inf) [10] of 16.8 ng·h/mL. The AUC(0-inf) [11] was 16.8 ng·h/mL, the AUC(0-inf) [12] was 17 ng·h/mL and the AUC(0-t) (human, plasma, im, 1 mg, AUClast, Treatment B: IM 1.0 mg nalmefene hydrochloride, plasma, Geo. Mean, n=68) was 16 ng·h/mL. It also gave an AUC(0-t) (human, plasma, im, 1 mg, AUClast, Treatment B: IM 1.0 mg nalmefene hydrochloride, plasma, Mean, n=68) of 16.3 ng·h/mL, an AUC(0-t) (human, plasma, im, 1 mg, AUClast, Treatment B: IM 1.0 mg nalmefene hydrochloride, plasma, Median, n=68) of 15.9 ng·h/mL and a Cmax [10] of 1.5 ng/mL. It also gave a Cmax [11] of 1.5 ng/mL, a Cmax [13] of 1.77 ng/mL and a Cmax [12] of 1.52 ng/mL. The half-life (human, plasma, im, 1 mg, plasma, Geo. Mean, n=68) was 10.4 h, the half-life (human, plasma, im, 1 mg, plasma, Mean, n=68) was 10.6 h and the half-life (human, plasma, im, 1 mg, plasma, Median, n=68) was 9.98 h. For the same compound, the Tmax (human, plasma, im, 1 mg, Tmax, Treatment B: IM 1.0 mg nalmefene hydrochloride, plasma, Geo. Mean, n=68) was 0.603 h, the Vd/F [11] was 894 L and the Vd/F [13] was 916 L.
